Data set [1] concerns MDA-MB-231 human tumor xenograft. In words: Antitumor activity, subcutaneous MDA-MB-231 breast cancer xenografts in SCID mice. Type of data set: in vivo. Particulars: for Activity: q1d5 × 3, MDA-MB-231; for Deaths (%): q1d5 × 3, SCID mice. As to the method: Subcutaneous xenografts were established with MDA-MD-231 breast cancer cells (ATCC: HTB-26) in SCID mice (Harlan, U.K.). The animals were treated and cared after in accordance with the Guide For the Care and Use of Laboratory Animals (National Research Council, 1996) and with European Directive 86/609/EEC, under the supervision of a staff expert authorized to conduct experimental studies with laboratory animals.
All the experiments were conducted pursuant to French and local regulations (Department of Veterinary Services, Haute-Garonne, Toulouse) according to the directives of an ethics committee, based on the UKCCCR Guidelines for the Welfare of Animals in Experimental Neoplasia, as indicated above. The implantation of MDA-MB-231 human tumor fragments is carried subcutaneously in the flanks of SCID mice using a trocar and, for the study of tumor growth, the tumors are allowed to reach a median volume of 70-130 mm^3 before starting the studies.
After randomization in the treatment cages, the inhibitors were administered intravenously according to a g1d5×3 treatment scheme (5 injections per week for 3 weeks). The mice were monitored and weighed daily. The tumors were measured with a slide caliper and the tumor volumes (mm^3) were estimated using the following formula: volume=0.5 (length×width^2). Each experimental group consists of 5 individuals. The efficacy of the treatment was evaluated by analysis of the measurement of the median volume of the treated tumors compared with the median volume of the tumors receiving only carrier (control). The T/C evaluation criterion corresponds to: [(median volume of the treated group, T/median volume of the control group, C)×100]. This T/C ratio is expressed as a percentage. The optimal T/C value corresponds to the ratio which reflects the maximum inhibition of growth obtained during the study. The maximum gains or losses of weight, expressed as a percentage of the initial weight of the animals, as well as the percentage of drug-related deaths (i.e., the percentage of treated animals that died before the assessment) were used to provide an evaluation of the toxicity of the compounds. In accordance with the NCI (National Cancer Institute) criterion, a dose is deemed toxic if it induces weight loss greater than −20% relative to the initial weight of the mouse or if it induces more than 20% deaths (Corbett et al. J Exp Ther Oncol 1996, 1:95-108).

In data set [2] the test system is HCT116 line (human colon cancer cell line). In words: Antiproliferative (cytotoxic) activity on HCT116 line, ATPLite cell viability, 72 hours. Type of data set: cell-based. Conditions: read-out: HCT116 (EC50). As to the method: 2.1. Antiproliferative Activity of the Compounds According to the Invention (IC50 in M)
Culture of Lines and Measurement of Cell Viability:
The HCT116 line (ATCC, CCL-247) derived from colon cancer was cultured in MEM (Minimum Essential Medium Eagle) supplemented with 2 mM L-glutamine (Sigma, G7513), 5% fetal calf serum (Sigma, F7524) and antibiotics (Sigma, A59-55). The protocol for determining cytotoxic activity consists in seeding cells on 96-well plates (Perkin Elmer, 6005668) at a density of 1500 cells per well. After 24 hours of incubation, the test compound is applied in each well, using serial dilutions in the solvent dimethylsulfoxide (DMSO) (Sigma, D8418), from 10 mM stock solutions in 100% DMSO. Each dilution was added to the cells 24 hours after seeding. Under these conditions, the final solvent concentration is 0.1% DMSO. A reading of cell proliferation was carried out 72 hours after addition of the products with the ATPLite™ kit (Perkin Elmer, 6016947) and according to the manufacturer's recommendations. The analysis of the proliferation results was carried out by comparison with conditions where only the carrier solvent (culture medium, 0.1% DMSO) was added to the cells. The dose-response curves obtained were analyzed using the PRISM 4.03 software (GraphPad Software Inc.), or by an equivalent analytical method, to determine the concentration of each compound which inhibits 50% of cell proliferation (EC50).
By way of example, the cytotoxic properties of several compounds of the invention evaluated on the HCT116 line (human colon cancer cell line) are reported in Table 1.
In general terms: In ATP-based viability assays light output follows the ATP content of the culture.

Setting [3] is: Mus musculus, MDA-MB-231, iv, read-out: Opt. T/C (%).
Where [4] appears, read: HCT-116, HCT116, 72 hours after addition, ATPLite.

Where two headings read alike, the source gives them in different places.

The EC50 is the concentration that produces a half-maximal response.

With `COc1ccc([C@@]23Oc4cc(OC)cc(OC)c4[C@]2(O)[C@H](O)[C@H](c2nnc(N)o2)[C@H]3c2ccccc2)cc1` [Compound 19, (1R,2R,3S,3aR,8bS)-2-(5-amino-1,3,4-oxadiazol-2-yl)-6,8-dimethoxy-3a-(4-methoxyphenyl)-3-phenyl-2,3,3a,8b-tetrahydro-1H-cyclopenta[b]benzofuran-1,8b-diol], in data set [1] (1.3 mg/kg intravenously), the outcome was Active and the “Deaths (%)” value worked out at 0%. Moreover, the response vs control in vivo at 1.3 mg/kg in data set [1] (setting [3]) is 26%.

In the case of `COC(=O)[C@H]1[C@@H](O)[C@@]2(O)c3c(OC)cc(OCCCCN)cc3O[C@@]2(c2ccc(OC)cc2)[C@@H]1c1ccccc1` [Compound 50, methyl (1R,2R,3S,3aR,8bS)-6-(4-aminobutoxy)-1,8b-dihydroxy-8-methoxy-3a-(4-methoxyphenyl)-3-phenyl-2,3,3a,8b-tetrahydro-1H-cyclopenta[b]benzofuran-2-carboxylate], the EC50 in data set [2] (HCT-116, 72 h) stood at 1.22 nM.

On to `COc1ccc([C@@]23Oc4cc(OC)cc(OC)c4[C@]2(O)[C@H](O)[C@H](c2nnc(C)[nH]2)[C@H]3c2ccccc2)cc1` (racemic) [Compound 30, rac-(1R,2S,3S,3aR,8bS)-6,8-dimethoxy-3a-(4-methoxyphenyl)-2-(5-methyl-4H-1,2,4-triazol-3-yl)-3-phenyl-2,3,3a,8b-tetrahydro-1H-cyclopenta[b]benzofuran-1,8b-diol], for which, in data set [1] (0.7 mg/kg intravenously), the outcome was Active and the “Deaths (%)” value turned out to be 0%. Besides, in data set [1] (setting [3]), the response vs control in vivo at 0.7 mg/kg is 15%.

With `COc1ccc([C@@]23Oc4cc(OC)cc(OC)c4[C@]2(O)[C@H](O)[C@H](c2nnc(N)o2)[C@H]3c2ccccc2)cc1` (racemic) [Compound 18, rac-(1R,2R,3S,3aR,8bS)-2-(5-amino-1,3,4-oxadiazol-2-yl)-6,8-dimethoxy-3a-(4-methoxyphenyl)-3-phenyl-2,3,3a,8b-tetrahydro-1H-cyclopenta[b]benzofuran-1,8b-diol], in data set [1] (2.5 mg/kg intravenously), the result was Active and the “Deaths (%)” value came out at 0%. Besides, in data set [1] (3.5 mg/kg intravenously), the result was Active and the “Deaths (%)” value was determined as 0%. In addition, in data set [1] (setting [3]), the response vs control in vivo at 2.5 mg/kg stood at 40% and the response vs control in vivo at 3.5 mg/kg was determined as 6%.

As to `COc1ccc([C@@]23Oc4cc(OCCCCO)cc(OC)c4[C@]2(O)[C@@H]2OC(=O)N[C@@H]2[C@H]3c2ccccc2)cc1` (racemic) [Compound 42, rac-(3aR,4R,4aR,9bS,9cR)-9b-hydroxy-7-(4-hydroxybutoxy)-9-methoxy-4a-(4-methoxyphenyl)-4-phenyl-3,3a,4,4a,9b,9c-hexahydro-2H-benzofuro[3′,2′:3,4]cyclopenta[1,2-d]oxazol-2-one], the EC50 in data set [2] (setting [4]) is 2.16 nM.

For the compound `CN[C@H]1[C@@H](O)[C@@]2(O)c3c(OC)cc(OC)cc3O[C@@]2(c2ccc(OC)cc2)[C@@H]1c1ccccc1` (racemic) [Compound 15, rac-(1R,2R,3R,3aR,8bS)-6,8-dimethoxy-3a-(4-methoxyphenyl)-2-(methylamino)-3-phenyl-1,2,3,3a-tetrahydro-8bH-cyclopenta[b]benzofuran-1,8b-diol], the concentration giving a half-maximal response (EC50) in data set [2] (setting [4]) turned out to be 3.83 nM.

Take `COc1ccc([C@@]23Oc4cc(OCCN(C)C)cc(OC)c4[C@]2(O)[C@H](O)[C@H](c2nnc(N)o2)[C@H]3c2ccccc2)cc1` (racemic) [Compound 21, rac-(1R,2R,3S,3aR,8bS)-2-(5-amino-1,3,4-oxadiazol-2-yl)-6-(2-(dimethylamino)ethoxy)-8-methoxy-3a-(4-methoxyphenyl)-3-phenyl-2,3,3a,8b-tetrahydro-1H-cyclopenta[b]benzofuran-1,8b-diol]: in data set [1] (1 mg/kg intravenously), the outcome was Active and the “Deaths (%)” value came to 0%. Besides, the response vs control in vivo at 1 mg/kg in data set [1] (setting [3]) was 22%.

`COc1ccc([C@@]23Oc4cc(OC)cc(OC)c4[C@]2(O)[C@@H]2OC(=O)N[C@@H]2[C@H]3c2ccccc2)cc1` (racemic) [Compound 40, rac-(3aR,4R,4aR,9bS,9cR)-9b-hydroxy-7,9-dimethoxy-4a-(4-methoxyphenyl)-4-phenyl-3,3a,4,4a,9b,9c-hexahydro-2H-benzofuro[3′,2′:3,4]cyclopenta[1,2-d]oxazol-2-one]: the EC50 in data set [2] (setting [4]) stood at 2.52 nM.

`COC(=O)[C@H]1[C@@H](O)[C@@]2(O)c3c(OC)cc(OCCCCN(C)C)cc3O[C@@]2(c2ccc(OC)cc2)[C@@H]1c1ccccc1` (racemic) [Compound 52, rac-methyl (1R,2R,3S,3aR,8bS)-6-(4-(dimethylamino)butoxy)-1,8b-dihydroxy-8-methoxy-3a-(4-methoxyphenyl)-3-phenyl-2,3,3a,8b-tetrahydro-1H-cyclopenta[b]benzofuran-2-carboxylate]: in data set [2] (setting [4]), the EC50 turned out to be 4.9 nM.

On to `COc1ccc([C@@]23Oc4cc(OC)cc(OC)c4[C@]2(O)[C@@H]2OC(N)=N[C@@H]2[C@H]3c2ccccc2)cc1` (racemic) [Compound 47, rac-(3aR,4R,4aR,9bS,9cR)-2-amino-7,9-dimethoxy-4a-(4-methoxyphenyl)-4-phenyl-4,4a,9b,9c-tetrahydro-3aH-benzofuro[3′,2′:3,4]cyclopenta[1,2-d]oxazol-9b-ol], for which the EC50 in data set [2] (setting [4]) was 1.1 nM.

With `COc1ccc([C@@]23Oc4cc(OCCN5CCN(C)CC5)cc(OC)c4[C@]2(O)[C@H](O)[C@H](c2nnc(N)o2)[C@H]3c2ccccc2)cc1` (racemic) [Compound 22, rac-(1R,2R,3S,3aR,8bS)-2-(5-amino-1,3,4-oxadiazol-2-yl)-8-methoxy-3a-(4-methoxyphenyl)-6-(2-(4-methylpiperazin-1-yl)ethoxy)-3-phenyl-2,3,3a,8b-tetrahydro-1H-cyclopenta[b]benzofuran-1,8b-diol], in data set [1] (1.4 mg/kg intravenously), the outcome was Active and the “Deaths (%)” value was 0%. The response vs control in vivo at 1.4 mg/kg in data set [1] (setting [3]) came to 21%.

Regarding `CNc1nnc([C@H]2[C@@H](O)[C@@]3(O)c4c(OC)cc(OC)cc4O[C@@]3(c3ccc(OC)cc3)[C@@H]2c2ccccc2)o1` (racemic) [Compound 24, rac-(1R,2R,3S,3aR,8bS)-6,8-dimethoxy-3a-(4-methoxyphenyl)-2-(5-(methylamino)-1,3,4-oxadiazol-2-yl)-3-phenyl-2,3,3a,8b-tetrahydro-1H-cyclopenta[b]benzofuran-1,8b-diol], in data set [1] (2.8 mg/kg intravenously), the outcome was Active and the “Deaths (%)” value is recorded as 0%. Also, the response vs control in vivo at 2.8 mg/kg in data set [1] (setting [3]) amounted to 25%.

With `COC(=O)[C@H]1[C@@H](O)[C@@]2(O)c3c(OC)cc(OCCCCN)cc3O[C@@]2(c2ccc(OC)cc2)[C@@H]1c1ccccc1` (racemic) [Compound 8, rac-(1R,2R,3S,3aR,8bS)-methyl 6-(4-aminobutoxy)-1,8b-dihydroxy-8-methoxy-3a-(4-methoxyphenyl)-3-phenyl-2,3,3a,8b-tetrahydro-1H-cyclopenta[b]benzofuran-2-carboxylate], the EC50 in data set [2] (HCT-116, 72 h) was found to be 2.61 nM.

For the origin of these results see patent publication US10519125B2, “Flavagline derivatives” (PIERRE FABRE MEDICAMENT, priority 2014, dated 2019).
